Measured values taken from ChEMBL document CHEMBL5576048, “A Second-Generation Oral SARS-CoV-2 Main Protease Inhibitor Clinical Candidate for the Treatment of COVID-19” (J Med Chem, 2024).

System: SARS-CoV-2
Assay: Antiviral activity against SARS-CoV-2 Delta variant infected in African green monkey VeroE6/TMPRSS2 cells
Assay type: functional, organism-based
Settings: Severe acute respiratory syndrome coronavirus 2, Delta

Compound CCC(CC)COC(=O)[C@H](C)N[P@](=O)(OC[C@H]1O[C@@](C#N)(c2ccc3c(N)ncnn23)[C@H](O)[C@@H]1O)Oc1ccccc1 has an EC50 of 161 nM.
